Patent US20120270238A1, “Peptides That Bind the Alpha-Fetoprotein (AFP) Receptor and Uses Thereof” (priority 2009, published 2012)
No end group written: not given here. *: point of attachment. FITC = O=C1OC2(c3ccc(O)cc3Oc3cc(O)ccc32)c2ccc(NC(=S)*)cc21

Tests used:
[1] = tested on: MCF-7 cells (human breast cancer cell line); test: Uptake of FITC labelled peptide into MCF-7 cells; type: cell-based; details: FITC fluorescence; qualitative
Excerpt: FIGS. 10A and B show the results of this experiment. […] This experiment provides evidence that the peptides according to the present invention provide for intracellular delivery of bioactive agents to the interior of cells expressing AFPr, particularly cancer cells.

[2] = tested on: cancer cell line that is known to have AFP receptors; test: Binding of FITC labelled peptide to cancer cells; type: cell-based; details: FITC at the N terminal; fluorescence; qualitative
[3] = tested on: alpha-fetoprotein receptor present in MCF-7 cell extracts; test: Competitive ELISA with biotin labeled AFP on MCF-7 cell extract; type: binding, human; details: for inhibition (competition with AFP-biotin): constant AFP-biotin 0.5 μg/ml, plate coated with MCF-7 extract; for competition with biotin labeled AFP for the AFP receptor: qualitative, biotin labeled AFP 0.5 ug/ml
Description: To see if the enzymatic digests were still biologically active, the enzymatic digests were used in a competitive based ELISA with whole AFP molecule labeled with biotin. The ability of the enzymatic digest dilutions to compete for the alpha-fetoprotein receptor present in MCF-7 cell extracts was determined using a constant 0.5 ug/ml of biotin labeled AFP. […] This fragment was run on a gradient tricine gel, transferred to a PVDF membrane and sent for N terminal sequencing. Results gave the amino acid (AA) sequence V-N-P-G . . . corresponding to AA 493 to 496 of Human AFP as published in Uniprot Data base (FIG. 2).
A plate can be coated with an extract of a cancer cell line known to have AFP receptors (for example, MCF-7). The plate is coated at 100 ug/ml total protein concentration and the peptide to be tested and AFP biotin is mixed with an initial peptide concentration of 250 μg/ml and subsequent half dilutions made. […] (FIG. 3). This assay was repeated with subsequent peptides synthesized in order to determine the smallest amino acid chain that would compete along with other peptides not in this region of the AFP molecule as well as from a different species.

[4] = biological target: alpha-fetoprotein receptor (AFP receptor) (human); test: competition assay, plate coated with MCF-7 extract, AFP-biotin constant at 0.5 µg/ml

## FITC labeled Fragment 4: Fragment 4 synthesized with FITC at the N terminal ({FITC}-LQTMKQEFLIN)
[1]
  uptake into MCF-7 human breast cancer cells: uptake
[2]
  binding to cancer cells: demonstrated binding

## HKDLCQAQGVALQTMKQEFLIN [Fragment 3, amino acids 534-555 of human AFP]
[3]; peptide 7.8 μg/ml
  inhibition (competition with AFP-biotin): 50%
[3]; peptide 250 μg/ml
  inhibition (competition with AFP-biotin): 85%
[3]
  competition with biotin labeled AFP for the AFP receptor: found to compete

## KQEFLIN [amino acids 549-555 of human AFP]
[3]
  competition with biotin labeled AFP for the AFP receptor: found to compete

B1: Fragment 3, … (peptide)
peptide: HKDLCQAQGVALQTMKQEFLIN
[4]
  % inhibition at 7.8 µg/ml: 50%
  % inhibition at 250 µg/ml: 85%
